Data as given in US20070003636A1, “Statins (HMG-COA reductase inhibitors) as a novel type of immunomodulator, immunosuppressor and anti-inflammatory agent” (priority 2003, published 2007).

Columns and labels:
[1] = test system: CD40; assay: IFN-γ induced CD40 expression on vascular endothelial cells (Western blot); type: cell-based, human; settings: ECs; for CD40 expression with co-treatment by IFN-γ and statin: IFN-γ 500 U/ml, 24 hrs, Western blotting
Source text: Cell isolation and culture. […] Human vascular smooth muscle (SMCs) cells were isolated from human saphenous veins and mammary arteries by explant outgrowth, and cultured in DMEM (BioWhittaker) supplemented with 1% L-glutamine (BioWhittaker), 1% penicillin/streptomycin, and 10% FCS. Both cell types were subcultured following trypsinization (0.5% trypsin (Worthington Biochemicals)/0.2% EDTA (EM Science)) in P100-culture dishes (Becton Dickinson).
Western blots analysis. Cells were harvested in ice-cold RIPA solubilization buffer, and total amounts of protein were determined using a bicinchoninic acid quantification assay (Pierce, Rockford, Ill.). Twenty μg of total protein/lane were separated by SDS/PAGE under reducing conditions and blotted to polyvinylidene difluoride membranes (Millipore Corp., Bedford, Mass.) using a semidry blotting apparatus (Bio-Rad, Hercules, Calif.). Blots were blocked overnight in 5% defatted dry milk/PBS/0.1% Tween, and then incubated for 1 hour at room temperature with primary antibody (1:40) (rabbit […] anti-CD40 Santa Cruz, San Diego, Calif.), or mouse monoclonal anti-human […] (1:5000) (Pharmingen) for control of loading. This was followed by a 1 hour incubation with secondary peroxidase-conjugated antibody (1:10,000), (Jackson Immunoresearch, West Grove, Pa.). […] Immunoreactivity was detected using the enhanced chemiluminescence detection method according to the manufacturer's instructions. (Amersham, Dübendorf Switzerland), and subsequent exposure of the membranes to x-ray film. Analysis of quantification of detection was performed using AIDA software.

[2] = test system: CD40 mediated pathways; assay: CD40L induced cytokine release (IL-6, IL-8, MCP-1) from ECs, ELISA; type: cell-based, human; settings: added to statin and CD154
Description: Cytokines assay. […] Experiments were performed in the presence of polymyxin B (1 μg/ml). Antibody binding was detected by adding substrate (R&D), and absorbance measured at 450 nm using a Dynatech plate reader. The amount of IL-6, IL-8 and MCP-1 detected was calculated from a standard curve prepared with the recombinant protein. Samples were assayed in duplicates.
To investigate the functional consequences of inhibition of CD40 expression by statins on Endothelial Cells activation by CD40L, secreted cytokines were analyzed such as Interleukin-6 (IL-6), interleukin-8 (IL-8), macrophages chemoattractant protein-1 (MCP-1). Addition of an anti-CD40LmAb blocked the induction of all three secreted cytokines in response to CD40 ligation.

[3] = test system: MHC class II; settings: ECs, IFN-γ 500 U/ml 48 hrs; compared among Atorvastatin, Lovastatin, Pravastatin
Description: Cell isolation and culture. […] Flow cytometry. […] Data were analyzed using […] software (Becton Dickinson).

[4] = test system: CRP; settings: cited from earlier work

Row | Molecule | CD40 expression with co-treatment by IFN-γ and statin [1] | reversal of statin effect on cytokine secretion [2] | potency as MHC class II repressor [3] | effect on IFN-γ induced CD40 in the presence of L-mevalonate [1] | IFN-γ induction of CD40, dose dependence ([1]; IFN-γ 500 U/ml 24 hrs) | concentration range over which effect on CD40 was observed ([1]; IFN-γ 500 U/ml 24 hrs) | CD40 expression, treatment with statin alone ([1]; without IFN-γ) | CRP levels ([4]; 80 mg/day) | effect on biological markers of inflammation ([4]; in vivo)
1 | CC[C@H](C)C(=O)O[C@H]1C[C@@H](C)C=C2C=C[C@H](C)[C@H](CC[C@@H]3C[C@@H](O)CC(=O)O3)[C@H]21 [lovastatin, Lovastatin] | decreased | – | – | – | – | – | – | – | –
2 | L-mevalonate | – | significantly reverses the process | – | – | – | – | – | – | –
3 | CC(C)c1c(C(=O)Nc2ccccc2)c(-c2ccccc2)c(-c2ccc(F)cc2)n1CC[C@@H](O)C[C@@H](O)CC(=O)O [Atorvastatin] | decreased | – | most powerful MHC class II repressor | markedly reduced | repressed this induction of CD40 in a dose-dependant manner | 0.08 to 5 µM | had an effect on CD40 expression | decrease in CRP levels | dose-dependent
